{
  "source": "patent US20260305610A1",
  "about": "“TRIAZOLE COMPOUND, AND PREPARATION METHOD THEREFOR, HERBICIDAL COMPOSITION AND USE THEREOF” (QINGDAO KINGAGROOT CHEMICAL COMPOUND CO., LTD., priority 2023, published 2026)",
  "tested_on": "weeds",
  "experiment": "Activity assay of compositions: soil sealing treatment (S), fresh weight inhibition and combined effect (Gowing method)",
  "assay_type": "in vivo",
  "conditions": "21 d",
  "procedure": "The required active ingredient B was purchased from a reagent company or a technical material manufacturer or synthesized by a conventional method. The technical materials were all dissolved with acetone solvents and diluted with aqueous solution of 0.1% Tween-80 emulsifier, which should be used immediately after dilution.\n• Weeds were cultivated in a controllable sunlight greenhouse at 20 to 30° C., in natural light, and with relative humidity of 57% to 72%. […] The test soil was quantitatively filled to ¾ of the pot, and then watered from the bottom of the pot to completely wet the soil to saturation. The test weed seeds were accelerated to just germinate, and then evenly and quantitatively broadcasted on the soil surface, covered with 0.5-1 cm soil according to the sizes of the seeds, and ready for use 72 hours after sowing.\nEach treatment was repeated 4 times. Four pots with 20 weed seeds sowed per pot were treated each time.\nThe well-sowed test materials were evenly placed on a platform with an area of 0.5 m^2, and foliage spraying was carried out by the 3WP-2000-type walking spray tower at a dosage of 450 kg/ha and a spray pressure of 0.3 MPa. After all the solution was sprayed, the air valve was closed. And 30 seconds later, the door of the spray tower was opened, and the nutritional bowl was taken out. Next, the air valve was opened, and the spray tube was cleaned by spraying 50 ml of water.\nA method for investigating absolute numbers was employed. Whole seedlings of survival weeds were cut off along the soil surface with a blade, and the fresh weight of the weeds was weighed using an analytical balance. For dead weeds, the fresh weight thereof was zero.\nThe investigation was performed 21 days after the treatment for once in total.\nThe theoretical fresh weight inhibition rate of a mixed combination of each treatment was calculated by the Gowing method (E0=X+Y−X*Y/100). Then compared with the measured inhibition rate (E), the type of the combined effect of the combination of the two on weeds was evaluated, which was a synergistic effect when E−E0>10%; an antagonistic effect when E−E0<−10%; an additional effect when −10%≤E−E0≤10%. An optimal ratio was determined according to factors such as the actual control effects, characteristics of herbicides, balance of the formulation, etc. In the formula, X represents the fresh weight inhibition rate of the active ingredient A in a dosage of P; Y represents the fresh weight inhibition rate of the active ingredient B in a dosage of Q. The statistical results are shown in Table 4.",
  "key": {"[1]": {"conditions": "Commelina communis, B 30 g a.i./ha"}, "[2]": {"conditions": "Commelina communis, B 60 g a.i./ha"}, "[3]": {"conditions": "Lolium multiflorum, B 150 g a.i./ha"}, "[4]": {"conditions": "Lolium multiflorum, B 300 g a.i./ha"}, "[5]": {"conditions": "Eclipta prostrata, B 150 g a.i./ha"}, "[6]": {"conditions": "Eclipta prostrata, B 300 g a.i./ha"}, "[7]": {"conditions": "Eclipta prostrata, B 7.5 g a.i./ha"}, "[8]": {"conditions": "Eclipta prostrata, B 15 g a.i./ha"}},
  "data": [
    {"smiles": "CCOC(=O)COc1ncccc1Oc1cc(-n2c(=O)cc(C(F)(F)F)n(C)c2=O)c(F)cc1Cl", "note": "[Epyrifenacil]", "values": [
      {"measurement": "Control effect of B applied alone in a corresponding dose (%)", "setting": "[1]", "value": 38.8, "unit": "%"},
      {"measurement": "Control effect of B applied alone in a corresponding dose (%)", "setting": "[2]", "value": 50.5, "unit": "%"}
    ]},
    {"smiles": "CCOC(=O)C1(C)CC(c2cc(-n3c(=O)cc(C(F)(F)F)n(C)c3=O)c(F)cc2Cl)=NO1", "note": "(stereo not drawn) [3-[2-chloro-5-[3,6-dihydro-3-methyl-2,6-dioxo-4-(trifluoromethyl)-1(2H)-pyrimidinyl]-4-fluorophenyl]-4,5-dihydro-5-methyl-5-isoxazolecarboxylic acid ethyl ester]", "values": [
      {"measurement": "Control effect of B applied alone in a corresponding dose (%)", "setting": "[1]", "value": 35.0, "unit": "%"},
      {"measurement": "Control effect of B applied alone in a corresponding dose (%)", "setting": "[2]", "value": 47.3, "unit": "%"}
    ]},
    {"smiles": "C[C@@H](Oc1nc(F)c(Cl)c(N)c1Cl)C(=O)O", "values": [
      {"measurement": "Control effect of B applied alone in a corresponding dose (%)", "setting": "[3]", "value": 38.4, "unit": "%"},
      {"measurement": "Control effect of B applied alone in a corresponding dose (%)", "setting": "[4]", "value": 53.7, "unit": "%"}
    ]},
    {"smiles": "CCC(C)Nc1c([N+](=O)[O-])cc(C(C)(C)C)cc1[N+](=O)[O-]", "note": "(stereo not drawn) [Butralin]", "values": [
      {"measurement": "Control effect of B applied alone in a corresponding dose (%)", "setting": "[5]", "value": 47.0, "unit": "%"},
      {"measurement": "Control effect of B applied alone in a corresponding dose (%)", "setting": "[6]", "value": 65.3, "unit": "%"}
    ]},
    {"smiles": "CCNc1nc(Cl)nc(NC(C)C)n1", "note": "[Atrazine]", "values": [
      {"measurement": "Control effect of B applied alone in a corresponding dose (%)", "setting": "Chloris virgata, B 300 g a.i./ha", "value": 40.1, "unit": "%"},
      {"measurement": "Control effect of B applied alone in a corresponding dose (%)", "setting": "Chloris virgata, B 600 g a.i./ha", "value": 58.9, "unit": "%"}
    ]},
    {"smiles": "CC(C)N(C)S(=O)(=O)NC(=O)c1cc(-n2c(=O)cc(C(F)(F)F)n(C)c2=O)c(F)cc1Cl", "note": "[Saflufenacil]", "values": [
      {"measurement": "Control effect of B applied alone in a corresponding dose (%)", "setting": "[7]", "value": 50.8, "unit": "%"},
      {"measurement": "Control effect of B applied alone in a corresponding dose (%)", "setting": "[8]", "value": 69.6, "unit": "%"}
    ]},
    {"smiles": "Cc1ccc(NC(=O)N(C)C)cc1Cl", "note": "[Chlorotoluron]", "values": [
      {"measurement": "Control effect of B applied alone in a corresponding dose (%)", "setting": "Lolium temulentum, B 375 g a.i./ha", "value": 34.3, "unit": "%"},
      {"measurement": "Control effect of B applied alone in a corresponding dose (%)", "setting": "Lolium temulentum, B 750 g a.i./ha", "value": 59.3, "unit": "%"}
    ]},
    {"smiles": "CC(C)=C1OC(=O)N(c2cc(OC3CCCC3)c(Cl)cc2F)C1=O", "note": "[Pentoxazone]", "values": [
      {"measurement": "Control effect of B applied alone in a corresponding dose (%)", "setting": "Eclipta prostrata, B 30 g a.i./ha", "value": 40.5, "unit": "%"},
      {"measurement": "Control effect of B applied alone in a corresponding dose (%)", "setting": "Eclipta prostrata, B 60 g a.i./ha", "value": 61.4, "unit": "%"}
    ]},
    {"smiles": "CC1(C)CON(Cc2ccc(Cl)cc2Br)C1=O", "values": [
      {"measurement": "Control effect of B applied alone in a corresponding dose (%)", "setting": "Lolium multiflorum, B 75 g a.i./ha", "value": 43.7, "unit": "%"},
      {"measurement": "Control effect of B applied alone in a corresponding dose (%)", "setting": "[3]", "value": 61.0, "unit": "%"}
    ]},
    {"smiles": "CC(C)N(C(=O)COc1nnc(C(F)(F)F)s1)c1ccc(F)cc1", "note": "[Flufenacet]", "values": [
      {"measurement": "Control effect of B applied alone in a corresponding dose (%)", "setting": "Lolium multiflorum, B 30 g a.i./ha", "value": 46.2, "unit": "%"},
      {"measurement": "Control effect of B applied alone in a corresponding dose (%)", "setting": "Lolium multiflorum, B 60 g a.i./ha", "value": 68.5, "unit": "%"}
    ]},
    {"smiles": "CS(=O)(=O)c1cc(C(F)(F)F)ccc1C(=O)c1cnoc1C1CC1", "note": "[Isoxaflutole]", "values": [
      {"measurement": "Control effect of B applied alone in a corresponding dose (%)", "setting": "Amaranthus retroflexus, B 15 g a.i./ha", "value": 36.7, "unit": "%"},
      {"measurement": "Control effect of B applied alone in a corresponding dose (%)", "setting": "Amaranthus retroflexus, B 30 g a.i./ha", "value": 50.3, "unit": "%"}
    ]},
    {"smiles": "C[C@@H](Oc1nc(F)c(Cl)c(N)c1Cl)C(=O)OCC1CCCO1", "note": "(stereo partly drawn)", "values": [
      {"measurement": "Control effect of B applied alone in a corresponding dose (%)", "setting": "Silene conoidea, B 75 g a.i./ha", "value": 48.0, "unit": "%"},
      {"measurement": "Control effect of B applied alone in a corresponding dose (%)", "setting": "Silene conoidea, B 150 g a.i./ha", "value": 54.2, "unit": "%"}
    ]},
    {"smiles": "COCc1cccc(C(O)c2nc(OC)cc(OC)n2)c1NS(=O)(=O)C(F)F", "note": "(stereo not drawn) [Pyrimisulfan]", "values": [
      {"measurement": "Control effect of B applied alone in a corresponding dose (%)", "setting": "[7]", "value": 54.4, "unit": "%"},
      {"measurement": "Control effect of B applied alone in a corresponding dose (%)", "setting": "[8]", "value": 73.7, "unit": "%"}
    ]},
    {"smiles": "CCCN(CCC)C(=O)SCc1ccccc1", "note": "[Prosulfocarb]", "values": [
      {"measurement": "Control effect of B applied alone in a corresponding dose (%)", "setting": "[4]", "value": 46.5, "unit": "%"},
      {"measurement": "Control effect of B applied alone in a corresponding dose (%)", "setting": "Lolium multiflorum, B 600 g a.i./ha", "value": 64.2, "unit": "%"}
    ]},
    {"smiles": "Cc1ccccc1CO[C@@H]1C[C@@]2(C(C)C)CC[C@]1(C)O2", "note": "(racemic) [Cinmethylin]", "values": [
      {"measurement": "Control effect of B applied alone in a corresponding dose (%)", "setting": "[7]", "value": 51.5, "unit": "%"},
      {"measurement": "Control effect of B applied alone in a corresponding dose (%)", "setting": "[8]", "value": 72.0, "unit": "%"}
    ]},
    {"smiles": "CCN(C(=O)n1nnn(-c2ccccc2Cl)c1=O)C1CCCCC1", "note": "[Fentrazamide]", "values": [
      {"measurement": "Control effect of B applied alone in a corresponding dose (%)", "setting": "Eclipta prostrata, B 22.5 g a.i./ha", "value": 35.1, "unit": "%"},
      {"measurement": "Control effect of B applied alone in a corresponding dose (%)", "setting": "Eclipta prostrata, B 45 g a.i./ha", "value": 48.9, "unit": "%"}
    ]},
    {"smiles": "CCCCOCN(C(=O)CCl)c1c(CC)cccc1CC", "note": "[Butachlor]", "values": [
      {"measurement": "Control effect of B applied alone in a corresponding dose (%)", "setting": "[5]", "value": 37.2, "unit": "%"},
      {"measurement": "Control effect of B applied alone in a corresponding dose (%)", "setting": "[6]", "value": 66.8, "unit": "%"}
    ]},
    {"smiles": "CSc1nc(NC(C)C)nc(NC(C)C)n1", "note": "[Prometryn]", "values": [
      {"measurement": "Control effect of B applied alone in a corresponding dose (%)", "setting": "Eleocharis yokoscensis, B 150 g a.i./ha", "value": 42.1, "unit": "%"},
      {"measurement": "Control effect of B applied alone in a corresponding dose (%)", "setting": "Eleocharis yokoscensis, B 300 g a.i./ha", "value": 56.9, "unit": "%"}
    ]}
  ]
}
